# Results published in patent US10717735B2, “Solid forms of a compound for modulating kinases” (Plexxikon Inc., priority 2017, dated 2020).
# Read-outs that look alike come from different tables or passages of the source.
# Columns and labels:
# [1] = Solubility estimates by solvent aliquot addition, visual observation; type: physicochemical
# Experimental: Aliquots of various solvents were added to measured amounts of Compound I or forms of Compound I as described herein with agitation (typically sonication) at ambient temperature until complete dissolution was achieved, as judged by visual observation. Solubilities were calculated based on the total solvent used to give a solution; actual solubilities may be greater because of the volume of solvent portions utilized or a slow rate of dissolution. […] If dissolution occurred at the first aliquot the value was reported as “>”.
# [2] = Dynamic vapor sorption (DVS); type: physicochemical; settings: from about 5% to about 95% RH
# Experimental: Dynamic Vapor […] DVS data were collected on a VTI SGA-100 Vapor Sorption Analyzer. NaCl and PVP were used as calibration standards. Samples were not dried prior to analysis. Adsorption and desorption data were collected over a range from 5 to 95% RH at 10% RH increments under a nitrogen purge. The equilibrium criterion used for analysis was less than 0.0100% weight change in 5 minutes with a maximum equilibration time of 3 hours. Data were not corrected for the initial moisture content of the samples.
# [3] = system: Eμ-TCL1 with advanced leukemia; assay: Pharmacodynamic evaluation of antitumor effects in Eμ-TCL1 with advanced leukemia; type: in vivo, Mice; settings: 20 mg/kg, qd, oral gavage, 8 days
# Experimental: FIG. 24 panels A-C illustrate data related to the pharmacodynamic evaluation of antitumor effects of Compound I Free Acid Amorphous in Eμ-TCL1 with advanced leukemia. Mice were stratified according to leukemic peripheral blood lymphocytes (PBLs) and spleen palpation score to receive either vehicle or Compound I Free Acid Amorphous (20 mg/kg, qd, oral gavage) for 8 days. […] FIG. 24C is a representative immunoblot analysis of relative protein levels of cMYC, P21, BTK, IKZF1, IKZF3 and TCL1A protein at the end of the 8 day study. […] Mice were stratified according to leukemic peripheral blood lymphocytes (PBLs) and spleen palpation score to receive either vehicle or Compound I Free Acid Amorphous (20 mg/kg, qd, oral gavage) for 8 days. […] FIG. 24C is a representative immunoblot analysis of relative protein levels of cMYC, P21, BTK, IKZF1, IKZF3 and TCL1A protein at the end of the 8 day study.
# [4] = system: adaptive transfer model of Eμ-TCL1; assay: Adaptive transfer model of Eμ-TCL1, treatment at leukemia onset; type: in vivo, wild type mice; settings: 20 mg/kg, qd
# Experimental: (§1) FIG. 24 panels D-G: using an adaptive transfer model of Eμ-TCL1, recipient wild type mice were randomized to receive vehicle (n=12) or Compound I Free Acid Amorphous (20 mg/kg, qd, oral gavage, n=10) at leukemia onset and disease progression was measured by flow cytometry as % CD19/CD5/CD45 positive PBL. Treatment was ended at 150 days. FIG. 24D is a Kaplan-Meier curve showing overall survival (OS) (p<0.0001), with the median OS for Compound I Free Acid Amorphous and the vehicle being 93 days and 34 days, respectively. Survival comparisons for FIG. 24D were made with the log-rank test, and p-values were adjusted for multiple comparisons. Compound I Free Acid Amorphous decreased the percentage of circulating leukemic PBL (FIG. 24E), and reduced spleen mass (FIG. 24F).
# as §1, with “Using” for “FIG. 24 panels D-G: using”
# [5] = system: Eμ-TCL1 leukemic splenocytes; assay: Survival of mice engrafted with Eμ-TCL1 leukemic splenocytes, comparison with Ibrutinib; type: in vivo, C57BL/6 mice; settings: 20 mg/kg, qd; for median overall survival (OS): oral gavage at leukemia onset, vehicle 21 days (FIG. 24H)
# Experimental: FIG. 24H is a Kaplan-Meier curve showing overall survival for C57BL/6 mice engrafted with Eμ-TCL1 leukemic splenocytes treated with Ibrutinib or Compound I Free Acid Amorphous (20 mg/kg, qd, oral gavage) at leukemia onset, where the median OS is: 41 days (Compound I Free Acid Amorphous, n=7), 32 days (Ibrutinib, n=8) and 21 days (vehicle, n=7). […] Survival comparisons for FIG. 24H were made with the log-rank test, and p-values were adjusted for multiple comparisons.
# FIG. 24H is a Kaplan-Meier curve showing overall survival (OS) for C57BL/6 mice engrafted with Eμ-TCL1 leukemic splenocytes treated with Ibrutinib or Compound I Free Acid Amorphous (Cmpd. I FAA) (20 mg/kg, qd, oral gavage) at leukemia onset. Survival comparisons for FIG. 24H were made with the log-rank test, and p-values were adjusted for multiple comparisons.
# Ibrutinib is currently the standard of care (first-in-line) treatment.
# uveal melanoma (UM) = settings: mouse xenograft models of uveal melanoma; cited from earlier work
# [6] = system: pre-clinical models of CLL; settings: in vitro and in vivo; cited from earlier work
# [7] = methanol (MeOH), ambient temperature
smiles,measurement,setting,value
"Cc1noc(C)c1-c1cnc2c(-c3ccc(C(=O)O)cc3)cn([C@@H](C)c3ccccn3)c2c1 [Compound I Form A, 4-(6-(3,5-dimethylisoxazol-4-yl)-1-[(1S)-1-(2-pyridyl)ethyl]pyrrolo[3,2-b]pyridin-3-yl)benzoic acid]",solubility,"[1]; acetone, ambient temperature",36000 µg/mL
same,solubility,"[1]; acetonitrile, organic solvent or mixture, thermodynamic from solid, acetonitrile (ACN), ambient temperature, read-out: Solubility",6000 µg/mL
same,solubility,"[1]; dichloromethane, organic solvent or mixture, thermodynamic from solid, dichloromethane (DCM), ambient temperature, read-out: Solubility",12000 µg/mL
same,solubility,[1]; [7],6000 µg/mL
same,solubility,"[1]; toluene, organic solvent or mixture, thermodynamic from solid, toluene, ambient temperature, read-out: Solubility",< 4000 µg/mL
same,DVS weight gain,[2],about 0.8%
"Cc1noc(C)c1-c1cnc2c(-c3ccc(C(=O)O)cc3)cn([C@@H](C)c3ccccn3)c2c1 [Compound I Form D, 4-(6-(3,5-dimethylisoxazol-4-yl)-1-[(1S)-1-(2-pyridyl)ethyl]pyrrolo[3,2-b]pyridin-3-yl)benzoic acid]",solubility,"[1]; acetone, ambient temperature",4000 µg/mL
same,solubility,"[1]; acetonitrile (ACN), ambient temperature",<3000 µg/mL
same,solubility,"[1]; chloroform, organic solvent or mixture, thermodynamic from solid, chloroform, ambient temperature, read-out: Solubility",> 59000 µg/mL
same,solubility,"[1]; dichloromethane (DCM), ambient temperature",24000 µg/mL
same,solubility,"[1]; diethyl ether, organic solvent or mixture, thermodynamic from solid, diethyl ether, ambient temperature, read-out: Solubility",< 2000 µg/mL
same,solubility,"[1]; dioxane, organic solvent or mixture, thermodynamic from solid, dioxane, ambient temperature, read-out: Solubility",< 2000 µg/mL
same,solubility,"[1]; ethanol, organic solvent or mixture, thermodynamic from solid, ethanol (EtOH), ambient temperature, read-out: Solubility",9000 µg/mL
same,solubility,"[1]; ethyl acetate, organic solvent or mixture, thermodynamic from solid, ethyl acetate (EtOAc), ambient temperature, read-out: Solubility",< 2000 µg/mL
same,solubility,"[1]; isopropyl alcohol, organic solvent or mixture, thermodynamic from solid, isopropyl alcohol (IPA), ambient temperature, read-out: Solubility",4000 µg/mL
same,solubility,[1]; [7],>72000 µg/mL
same,solubility,"[1]; tetrahydrofuran, organic solvent or mixture, thermodynamic from solid, tetrahydrofuran (THF), ambient temperature, read-out: Solubility",4000 µg/mL
same,solubility,"[1]; toluene, ambient temperature",<2000 µg/mL
same,solubility,"[1]; water, thermodynamic from solid, water, ambient temperature, read-out: Solubility",23000 µg/mL
"Cc1noc(C)c1-c1cnc2c(-c3ccc(C(=O)O)cc3)cn([C@@H](C)c3ccccn3)c2c1 [Compound I Free Acid Amorphous, 4-(6-(3,5-dimethylisoxazol-4-yl)-1-[(1S)-1-(2-pyridyl)ethyl]pyrrolo[3,2-b]pyridin-3-yl)benzoic acid]",leukemic cells in systemic circulation,[3]; vs vehicle (FIG. 24A),reduced
same,leukemic cells locally in spleen,[3]; vs vehicle (FIG. 24B),reduced
same,spleen mass,[4]; oral gavage (FIG. 24F),reduced
same,"HE staining of spleen, lung and blood: lymphocytes",[4]; oral gavage (FIG. 24G),depleted of lymphocytes
same,"Ki67 staining of spleen, lung and blood",[4]; oral gavage (FIG. 24G),mostly absent
same,median overall survival (OS),"[4]; oral gavage at leukemia onset, vehicle 34 days, p<0.0001 (FIG. 24D)",93 days
same,percentage of circulating leukemic PBL,"[4]; oral gavage, % CD19/CD5/CD45 positive PBL by flow cytometry (FIG. 24E)",decreased
same,median overall survival (OS),[5],41 days
same,survival compared with vehicle (p=0.024) and Ibrutinib (p=0.049),"[5]; oral gavage, log-rank test",significantly increased survival
"Cc1noc(C)c1-c1cnc2c(-c3ccc(C(=O)O)cc3)cn([C@@H](C)c3ccccn3)c2c1 [Compound I, 4-(6-(3,5-dimethylisoxazol-4-yl)-1-[(1S)-1-(2-pyridyl)ethyl]pyrrolo[3,2-b]pyridin-3-yl) benzoic acid]",solubility,"[1]; acetone, organic solvent or mixture, thermodynamic from solid, Acetone, read-out: Solubility",3000 µg/mL
same,solubility,"[1]; acetonitrile, organic solvent or mixture, thermodynamic from solid, Acetonitrile, read-out: Solubility",< 1000 µg/mL
same,solubility,"[1]; dichloromethane, organic solvent or mixture, thermodynamic from solid, Dichloromethane, read-out: Solubility",< 1000 µg/mL
same,solubility,"[1]; dimethyl sulfoxide, organic solvent or mixture, thermodynamic from solid, Dimethyl sulfoxide, read-out: Solubility",> 93000 µg/mL
same,solubility,"[1]; ethanol, organic solvent or mixture, thermodynamic from solid, Ethanol, read-out: Solubility",< 1000 µg/mL
same,solubility,"[1]; ethyl acetate, organic solvent or mixture, thermodynamic from solid, Ethyl acetate, read-out: Solubility",< 1000 µg/mL
same,solubility,"[1]; isopropanol, organic solvent or mixture, thermodynamic from solid, Isopropanol, read-out: Solubility",< 1000 µg/mL
same,solubility,"[1]; methanol, organic solvent or mixture, thermodynamic from solid, Methanol, read-out: Solubility",1000 µg/mL
same,solubility,"[1]; tetrahydrofuran, organic solvent or mixture, thermodynamic from solid, Tetrahydrofuran, read-out: Solubility",19000 µg/mL
same,solubility,"[1]; water, thermodynamic from solid, Water, read-out: Solubility",< 1000 µg/mL
same,tumor growth,uveal melanoma (UM),significantly inhibited tumor growth
same,efficacy relative to B-cell receptor (BCR) signaling agents,[6],emulatesor exceeds the efficacy of B-cell receptor (BCR) signaling agents
"C=CC(=O)N1CCC[C@@H](n2nc(-c3ccc(Oc4ccccc4)cc3)c3c(N)ncnc32)C1 [Ibrutinib, reference compound]",median overall survival (OS),[5],32 days
